Residues, ends and D or L forms follow the SMILES beside them. *: point of attachment. FITC = O=C1OC2(c3ccc(O)cc3Oc3cc(O)ccc32)c2ccc(NC(=S)*)cc21

Assay [1] concerns the target T1, AIDA1 PTB domain, Y70A mutant (PTBY70A) (Homo sapiens, UniProt Q7Z6G8, Y1111A).
T1 construct: A gene fragment encoding the PTB domain (aa. 1043–1195) of human AIDA1b; 6xHis tag with thrombin site (N); made in house; host or cells: pET28a vector
T1 sequence (Q7Z6G8 1040-1192 Y1111A): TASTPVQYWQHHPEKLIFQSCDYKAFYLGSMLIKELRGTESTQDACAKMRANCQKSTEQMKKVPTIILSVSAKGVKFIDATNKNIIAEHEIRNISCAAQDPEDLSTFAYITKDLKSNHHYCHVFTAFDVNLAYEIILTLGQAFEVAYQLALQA
The assay can be described thus: Fluorescence anisotropy binding of FITC-labeled APP peptides to PTBY70A. The following applies: FITC-labeled peptide, 25°C, buffer similar to NMR (20 mM Na-phosphate, pH 7.8, 0.15 M NaCl), two-state fit, n = 4 (APP-32), n = 2 (APP-17). From the text: (§1) A gene fragment encoding the PTB domain (aa. 1043–1195) of human AIDA1b was PCR amplified with NdeI and EcoRI restriction sites and was subsequently inserted into pET28a (Novagen). The expressed protein contained an amino terminal 6xHis tag and intervening thrombin site. Other PTB domain fragments that lacked either the N-terminal 6xHis tag or the entire affinity tag along with 16 additional unstructured residues were also as […] as the fragment chosen for this study. To align the PTB domain described in this study with numerous AIDA1 isoforms, S1 in the PTB domain structure corresponds to S1045 in AIDA1b, the longest isoform. A one-liter fermentation in a minimal medium containing 1 g of ^15NH4Cl and 4 g of ^13C-glucose was sufficient to produce 5–10 mg of purified protein. […]
(§2) Fluorescein isothiocyanate (FITC) labeled peptides spanning portions of APP were produced and purified by CanPeptide (Montreal, QC) for fluorescence anisotropy based binding studies at 25°C using an Agilent Eclipse spectrophotometer equipped with a manual polarizer accessory. […] Anisotropy was calculated from the relationship (Iparallel–GIperp)/(Iparallel[…]) and normalized with the blank experiment. The equilibrium dissociation constant (KD) was calculated by direct fitting the titration curves with a standard two-state relationship using proFit 6.2 (Quantsoft).
Background: Fluorescence polarisation rises when a labelled molecule tumbles more slowly, as on binding a larger partner.

Assay [2] deals with T2, AIDA1 PTB domain, PTB5M mutant (Homo sapiens, UniProt Q7Z6G8, F1057A/F1065A/Y1047A/Y1111A/Y1172A).
T2 construct: A gene fragment encoding the PTB domain (aa. 1043–1195) of human AIDA1b; 6xHis; made in house; host or cells: gene synthesised by DNA2.0 in pJExpress401
T2 sequence (Q7Z6G8 1043-1195 Y1047A/F1057A/F1065A/Y1111A/Y1172A): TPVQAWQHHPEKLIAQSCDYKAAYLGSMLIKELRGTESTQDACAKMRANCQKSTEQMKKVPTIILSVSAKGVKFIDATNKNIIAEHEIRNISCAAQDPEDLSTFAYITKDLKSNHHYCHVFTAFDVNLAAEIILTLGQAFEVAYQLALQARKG
In words: Fluorescence anisotropy binding of FITC-labeled APP peptides to PTB5M. The following applies: FITC-labeled peptide, 25°C, buffer similar to NMR (20 mM Na-phosphate, pH 7.8, 0.15 M NaCl), two-state fit, n = 4 (APP-32), n = 2 (APP-17), n = 1 (APP-17{pY}).
Text: as §1, §2

Assay [3] deals with AIDA1 PTB domain. In words: Binding of APP peptides to the AIDA1 PTB domain. More on the design: species or system human.
Text: A gene fragment encoding the PTB domain (aa. 1043–1195) of human AIDA1b was PCR amplified with NdeI and EcoRI restriction sites and was subsequently inserted into pET28a (Novagen). The expressed protein contained an amino terminal 6xHis tag and intervening thrombin site. Other PTB domain fragments that lacked either the N-terminal 6xHis tag or the entire affinity tag along with 16 additional unstructured residues were also as […] as the fragment chosen for this study. To align the PTB domain described in this study with numerous AIDA1 isoforms, S1 in the PTB domain structure corresponds to S1045 in AIDA1b, the longest isoform. A one-liter fermentation in a minimal medium containing 1 g of ^15NH4Cl and 4 g of ^13C-glucose was sufficient to produce 5–10 mg of purified protein. Purification was achieved by Nickel-NTA affinity chromatography (Qiagen) and gel filtration chromatography on a S-100 HR 16/60 size exclusion column (GE Biosciences). Final buffer conditions were 20 mM Na-phosphate, pH 7.8, 0.15 M NaCl, 0.05% (w/v) NaN3. […] A 6xHis tagged PTB domain variant containing all five substitutions (PTB5M) was produced by DNA2.0 (Menlo Park, CA) by direct gene synthesis in the expression vector, pJExpress401 (T5 promoter plus kanamycin resistance). A 6xHis-tagged, APP-peptide ([…]) fused to the amino terminus of the AIDA1 PTB5M mutant with an intervening thrombin site was also synthesized by DNA2.0 in pJExpress401.
as §2, with “accessory. Buffer conditions were similar to those used for NMR spectroscopy.” for “accessory.”

Assay [4] deals with X11 PTB domain. The following applies: Discussion; read-out: dissociation constant, X11 (given jointly for X11/Fe65); cited from earlier work. From the text:
(§3) This difference in affinity may be advantageous for AIDA1 to participate in signaling contexts beyond APP. From a peptide array study, we determined that the consensus sequence is less stringent NxxY versus NPxY for others in the same Dab-like class of PTB domains. Thus, at the neuronal synapse, AIDA1 could serve as a versatile collator and ...

The target in assay [5] is Fe65 PTB2 domain. To be noted: Discussion; read-out: dissociation constant, Fe65 (given jointly for X11/Fe65); cited from earlier work.
Text: as §3, with “One threonine (T668) in APP located in this extended region is susceptible to phosphorylation and acts as a switch that repartitions the cis and trans states of the adjacent proline (P669) that, in turn, affects the ability of Fe65 to engage its ligand. […] This” for “This”

Consider `CSCC[C@H](NC(=O)[C@H](CCC(N)=O)NC(=O)[C@H](CCC(=O)O)NC(=O)[C@H](Cc1ccccc1)NC(=O)[C@H](Cc1ccccc1)NC(=O)[C@H](CCCCN)NC(=O)[C@H](Cc1ccc(O)cc1)NC(=O)[C@@H](NC(=O)[C@@H]1CCCN1C(=O)[C@H](CC(N)=O)NC(=O)[C@H](CCC(=O)O)NC(=O)[C@H](Cc1ccc(O)cc1)NC(=O)CNC(=O)[C@H](CC(N)=O)NC(=O)[C@H](CCC(N)=O)NC(=O)[C@H](CCC(N)=O)NC(=O)[C@H](CCSC)NC(=O)[C@H](CCCCN)NC(=O)[C@H](CO)NC(=O)[C@H](CC(C)C)NC(=O)[C@H](Cc1c[nH]cn1)NC(=O)[C@H](CCCNC(=N)N)NC(=O)[C@H](CCC(=O)O)NC(=O)[C@H](CCC(=O)O)NC(=O)[C@@H]1CCCN1C(=O)[C@@H](NC(=O)[C@@H](NC(=O)[C@H](C)NC(=O)[C@H](C)NC(=O)[C@H](CC(=O)O)NC(=O)CNC(=O)CN)C(C)C)[C@@H](C)O)[C@@H](C)O)C(=O)N[C@@H](CCC(N)=O)C(=O)N[C@@H](CC(N)=O)C(=O)O` [APP-32] (H-GGDAAVTPEERHLSKMQQNGYENPTYKFFEQMQN-OH), for which the Kd in assay [1] stood at 13.3 ± 1.5 µM; in assay [2] it was 14.8 ± 1 µM.
In the case of `CSCC[C@H](NC(=O)[C@H](CCC(N)=O)NC(=O)[C@H](CCC(=O)O)NC(=O)[C@H](Cc1ccccc1)NC(=O)[C@H](Cc1ccccc1)NC(=O)[C@H](CCCCN)NC(=O)[C@H](Cc1ccc(O)cc1)NC(=O)[C@@H](NC(=O)[C@@H]1CCCN1C(=O)[C@H](CC(N)=O)NC(=O)[C@H](CCC(=O)O)NC(=O)[C@H](Cc1ccc(O)cc1)NC(=O)CNC(=O)[C@H](CC(N)=O)NC(=O)[C@H](CCC(N)=O)NC(=O)CNC(=O)CNC(=S)Nc1ccc2c(c1)C(=O)OC21c2ccc(O)cc2Oc2cc(O)ccc21)[C@@H](C)O)C(=O)N[C@@H](CCC(N)=O)C(=O)N[C@@H](CC(N)=O)C(=O)O` [APP-17] ({FITC}-GGQNGYENPTYKFFEQMQN-OH; C-terminus assumed), the “binding affinity to the AIDA1 PTB domain, long versus short APP peptide” value in assay [3] (fluorescence anisotropy titration, in words) is “no differences in binding affinity”.
As to “amyloid protein precursor (APP): amyloid protein precursor (APP)”, the results for the Kd in assay [3] (approximate value of text/abstract), in assay [4] and in assay [5] were approximately 10 µM, less than 1 µM and less than 1 µM, respectively. The “affinity of the AIDA1 PTB domain (in words)” value in assay [3] (relative to similar APP binding proteins such as X11/Fe65) is “moderate”.

The values above are taken from publication PMC3683042, “Solution Structure and Peptide Binding of the PTB Domain from the AIDA1 Postsynaptic Signaling Scaffolding Protein” (PLoS ONE, 2013).
